Source: patent US20020155126A1, “Pharmacological composition containing yeast cell wall fraction” (priority 2001, published 2002)

Legend:
[1] = test system: NC/Nga mice (models for atopic dermatitis); assay: Test Example 4: anti-atopic dermatitis test, NC/Nga mice, picryl chloride hapten challenge; assay type: in vivo
Description: Next, test was conducted on the anti-atopic dermatitis effect of the yeast cell wall fraction. As a test specimen, NC/Nga mice (5.5 weeks old) were preliminarily raised for 2 weeks with solid foodstuff (CE-2, manufactured by Clea Japan, Inc.) and, after adaptation to the experimental environment, were used upon being separated into groups of 7 mice each. […] Hapten sensitization was conducted 1 week after the commencement of test foodstuff administration, and the initial (first) hapten challenge was conducted a week thereafter, and a hapten challenge was conducted for each elapsed week thereafter, and the final (eighth) hapten challenge was conducted […] after the commencement of test foodstuff administration. […] In the aforementioned anti-atopic dermatitis test, the clinical score and total plasma IgE level were measured with time. […] The clinical score was comprehensively evaluated in […] evaluation phases of score (0)none, (1)mild, (2)moderate, (3)severe, regarding the 5 symptoms of acomia of scalp; bleeding and erosion of scalp; bleeding and erosion of auricle portion; corpulence, edema, and purpura of auricle portion; and deformation and disappearance of auricle porition. […]

[2] = test system: NC/Nga mice (model for delayed-type hypersensitivity); assay: Test Example 5: inhibition effect of delayed-type hypersensitivity, NC/Nga mice; assay type: in vivo
Description: The same test mice and test foodstuff as in Test Example 4 were used to conduct a test on the inhibition effect of delayed-type hypersensitivity. The NC/Nga mice, as described above, are known as a model for atopic dermatitis, but can also be used as a model for delayed-type hypersensitivity. The administration of test foodstuff to the test mice was continued until the end of the test. Hapten sensitization was conducted 1 week after the commencement of the foodstuff administration, hapten challenge was conducted 1 week thereafter upon measuring the thickening of the auricle portion prior to the challenge, and measurement of the thickening of the auricle portion 24 hours later was conducted once again. Hapten sensitization was conducted by applying picryl chloride 7% by weight ethanol solution 100 μl to the abdomen, and the hapten challenge was conducted by applying picryl chloride 1% by weight olive oil solution 10 μl to both faces of each auricle portion. The anti-inflammation effect was measured by seeking the edema ratio and tumidity from the aforementioned test results. […]

[3] = after the completion of administration of the test foodstuff

For `OC[C@H]1O[C@H](OC[C@H]2O[C@H](O[C@]3(CO)O[C@H](CO)[C@@H](O)[C@@H]3O)[C@H](O)[C@@H](O)[C@@H]2O)[C@H](O)[C@@H](O)[C@H]1O` [Raffinose], the “Final Weight, Mean” value [1, 3] was 25.9 g, the Ingestion, Mean ([1]; daily foodstuff ingestion amount, anti-atopic dermatitis test) was 4.05 g/day and the “Final Weight, Mean” value [2, 3] was 24.2 g. The “Ingestion, Mean” value ([2]; daily foodstuff ingestion amount, delayed-type hypersensitivity test) was 4.2 g/day.
